Assay results published in article PMC3201722 (NMR in biomedicine, 2011).

Target: T1, choline kinase (CK) [EC 2.7.1.32] (Saccharomyces cerevisiae, UniProt P20485)
T1 sequence (P20485 2-582): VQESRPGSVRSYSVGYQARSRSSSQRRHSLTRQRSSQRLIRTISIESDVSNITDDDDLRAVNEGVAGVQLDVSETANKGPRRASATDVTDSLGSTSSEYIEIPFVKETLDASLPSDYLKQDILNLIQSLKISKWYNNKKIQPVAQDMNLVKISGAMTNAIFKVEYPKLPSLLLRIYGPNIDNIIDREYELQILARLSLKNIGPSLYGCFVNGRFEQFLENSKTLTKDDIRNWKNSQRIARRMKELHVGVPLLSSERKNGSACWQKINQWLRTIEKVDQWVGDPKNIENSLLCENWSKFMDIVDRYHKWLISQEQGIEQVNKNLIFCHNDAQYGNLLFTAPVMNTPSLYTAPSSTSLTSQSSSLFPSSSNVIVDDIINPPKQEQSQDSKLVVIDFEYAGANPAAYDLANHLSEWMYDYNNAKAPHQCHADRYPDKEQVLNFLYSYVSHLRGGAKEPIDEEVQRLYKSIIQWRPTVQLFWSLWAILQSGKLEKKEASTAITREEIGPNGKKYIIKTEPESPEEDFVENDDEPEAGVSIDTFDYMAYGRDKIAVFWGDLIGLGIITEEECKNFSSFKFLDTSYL
Experiment: 1H NMR
Type: biochemical

SMILES: CN1CC[C@H](c2c(O)cc(O)c3c(=O)cc(-c4ccccc4Cl)oc23)[C@H](O)C1 [flavopiridol]
- IC50: < 500 nM
